According to patent publication US9555023B2, “Pharmaceutical salts and polymorphs of a factor Xa inhibitor” (Millennium Pharmaceuticals, Inc., priority 2005, dated 2017):
Where two headings read alike, the source gives them in different places.

Experiments:
[1] = Secondary screen: crystallinity (XRPD); type: physicochemical; details: for Crystallinity: secondary screen, Table 5
Description: X-Ray Powder Diffraction patterns were collected on a Siemens D5000 diffractometer using CuKα radiation (40 kV, 40 mA), […], automatic divergence and receiving slits, a graphite secondary monochromator and a scintillation counter.
Samples run under ambient conditions were prepared as flat plate specimens using powder. Approximately 35 mg of the sample was gently packed into a cavity cut into polished, zero-background (510) silicon wafer. The sample was rotated in its own plane during analysis. The details of the data collection are given for the method in Table 2 below: […]

[2] = Stability: hydrolyzed amidine content by HPLC after 57° C. / 75% humidity; type: physicochemical; details: for Hydrolyzed Amidine Content (3 days) / Hydrolyzed Amidine Content (6 days) / Hydrolyzed Amidine Content (10 days): 57° C., 75% room humidity, percentage of the main peak
Description: To assess the thermal and hydrolytic stability of the salt, tests known to those of skill in the art are performed.
The sample solvent was methanol and a mobile phase modifier of 0.1% trifluoroacetic acid was employed. Data were collected after 3, 6 and 10 days except data for the propionate was collected at 0, 3, and 8 days. […] All other impurity peaks were disregarded in the calculation

[3] = Primary salt screen (purity, crystallinity and stability of precipitated salts); details: 20 mg free base in 10% (aq.) THF, 1.1 eq. acid in ethanol, tert-butyl methyl ether to induce precipitation
Description: To 20 mg of the free base in 3 mL of 10% (aq.) THF mixture was added 1.1 eq. of the acid in 1 mL ethanol. The mixture was shaken for 2 hours, followed by the addition of 2 mL of tert-butyl methyl ether in order to induce precipitation and shaken for another 2 hours. The samples were then filtered, dried and then analyzed to judge their purity, crystallinity and stability.

[4] = Solubility in water by HPLC; type: physicochemical
Description: This was measured by suspending enough salt in 0.25 mL of solvent (water) to give a maximum final concentration of ≧10 mg/mL of the parent free form of the salt. The suspension was equilibrated at 25° C. for 24 hr followed by a pH check and filtration through a glass fibre C 96 well plate. The filtrate was then diluted down 101×. Quantitation was by HPLC with reference to a standard dissolved in DMSO at approx 0.1 mg/mL. Different volumes of the standard, diluted and undiluted tests were injected. […] If there was sufficient solid in the filter plate the XRPD was normally checked for phase changes, hydrate formation, amorphization, crystallization, etc.

[5] = biological target: factor Xa (Homo sapiens, UniProt P00742); details: cited from earlier work
[6] = Gravimetric vapour sorption (GVS) water sorption; type: physicochemical; details: GVS isotherm, XRPD post GVS
Description: All samples were run on a Hiden IGASorp moisture sorption analyzer running CFRSorp software. Sample sizes were typically 10 mg. A moisture adsorption desorption isotherm was performed as outlined below (2 scans giving 1 complete cycle). All samples were loaded/unloaded at typical room humidity and temperature (40% RH, 25° C.). All samples were analyzed by XRPD post GVS analysis. The standard isotherm was performed at 25° C. at 10% RH intervals over a 0-90% RH range.

[7] = Log P determination by potentiometric titration (Sirius GlpKa); type: physicochemical; details: Octanol:ISA water
From the text: This was by potentiometric titration on a Sirius GlpKa instrument using three ratios of Octanol:ISA water to generate Log P, Log Pion, and Log D values. The data was refined using Refinement Pro software version 1.0. Predictions of Log P were made using ACD Ver. 8.08 and Syracuse KNOWWIN Ver. 1.67 software.

factor Xa, sequence (P00742 235-488 limits assumed): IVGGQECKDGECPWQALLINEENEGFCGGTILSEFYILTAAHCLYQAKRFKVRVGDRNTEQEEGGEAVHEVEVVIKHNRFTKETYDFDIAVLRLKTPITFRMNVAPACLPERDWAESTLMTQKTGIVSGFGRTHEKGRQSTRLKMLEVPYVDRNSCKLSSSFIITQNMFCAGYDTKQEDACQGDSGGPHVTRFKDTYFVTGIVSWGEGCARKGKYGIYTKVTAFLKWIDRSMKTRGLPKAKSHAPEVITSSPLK
factor Xa, sequence (P00742 41-179 partner limits assumed): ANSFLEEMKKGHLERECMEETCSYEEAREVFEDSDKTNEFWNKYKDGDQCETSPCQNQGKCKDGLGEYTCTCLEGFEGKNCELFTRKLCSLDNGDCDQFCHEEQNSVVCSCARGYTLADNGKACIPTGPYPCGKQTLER

## CC(=O)O [Acetate]
[1]
  crystallinity (in words): good crystallinity
  Crystallinity: crystalline
[2]
  thermal and hydrolytic stability (in words): did not possess good thermal and hydrolytic stability
  Hydrolyzed Amidine Content (3 days): 0.62-1.11%
  Hydrolyzed Amidine Content (6 days): 2.30-3.56%
  Hydrolyzed Amidine Content (10 days): 3.61-7.90%

## Cl [Hydrochloric]
[1]
  Crystallinity: amorphous
[3]
  Salt (primary screen grade: purity, crystallinity and stability): +++

## O=C(O)CCC(=O)O [Succinic]
[1]
  Crystallinity: amorphous
[3]
  Salt (primary screen grade: purity, crystallinity and stability): +++

## O=C(O)CC(=O)O [Malonic]
[3]
  Salt (primary screen grade: purity, crystallinity and stability): −

## Propionic
[1]
  Crystallinity: crystalline
[2]
  Hydrolyzed Amidine Content (3 days): 2.22%
  Hydrolyzed Amidine Content (6 days): 2.97%
  Hydrolyzed Amidine Content (10 days): 1.71%
[3]
  Salt (primary screen grade: purity, crystallinity and stability): +++

## COc1ccc(NC(=O)c2ccc(C(=N)N(C)C)cc2)c(C(=O)Nc2ccc(Cl)cn2)c1 [compound of Formula I]
[4]
  solubility (in words): did not exhibit optimum solubility
[5]
  factor Xa inhibition (in words): potent factor Xa inhibitor

## Adipic
[3]
  Salt (primary screen grade: purity, crystallinity and stability): ++

## COc1ccc(NC(=O)c2ccc(C(=N)N(C)C)cc2)c(C(=O)Nc2ccc(Cl)cn2)c1 [Maleate]
[6]
  moisture stability: excellent moisture stability
[4]; thermodynamic from solid, water, 25° C., 24 hr, as parent free form
  solubility at 24 h: 2050 to 2270 µg/mL
[7]
  Measured LogPion: −0.08
[7]; read-out: Measured LogD
  logD: 0.09
[7]; read-out: Measured LogP
  logP: 3.09
[2]; listed as maleate salt
  thermal and hydrolytic stability (in words): best stability observed
[2]; listed as maleate salt of Formula II
  thermal and hydrolytic stability (in words): excellent

## O=S(=O)(O)c1cccc2c(S(=O)(=O)O)cccc12 [Naphthalene-1,5-disulfonic]
[3]
  Salt (primary screen grade: purity, crystallinity and stability): +
